Data set [1] can be described thus: In vivo pharmacokinetic studies, oral and subcutaneous. Conditions: for AUC(0-t): plasma. On the set-up: species or system male Wistar rats. The method, then: In vivo pharmacokinetic studies were performed using male Wistar rats weighing 250-300 g. The protocol was duly approved by the Institutional Animal Ethics Committee (IAEC) of Panjab University, Chandigarh, India. The animals were divided into four groups (n=6). Group 1 was administered 2.5 Lacs International units (IU) subcutaneous retinoic acid and vitamin D3 SLNs simultaneously, Group 2 was also simultaneously administered 2.5 Lacs IU free retinoic acid and vitamin D3. Group 3 was administered simultaneously 1 Lac IU oral Retinoic acid and vitamin D3 SLNs, Group 4 was administered simultaneously 1 Lac IU oral free Retinoic acid and vitamin D3. The blood samples (0.5 mL) were withdrawn from sinus under clavicle and, collected into heparinized micro-centrifuge tubes (containing […] of 1000 IU heparin/mL of blood) at 0.5 h, 1 h, 2 h, 4 h, 8 h, 12 h, 24 h, 48 h, 72 h, 96 h, 120 h, 144 h, 168 h. After each sampling, 1 mL of dextrose-normal saline was administered to prevent changes in the central compartment volume and electrolytes. Plasma was separated by centrifuging the blood samples at 4000 rpm for 10 min at 4° C. After centrifugation, the plasma obtained was stored at −20° C. until analysis.
500 microliter blank plasma was taken and into it added 20 microliter stock standard dilutions of different concentrations (0.01 mcg to 1 mcg) (vortex) and added 400 microliter of chilled ethanol (vortex) and to it was added 2 ml (n-Hexane:ethylacetate (90:10) (Vortex) and the same was kept at −20° C. for 5 min followed by Cold centrifuge at 5000 rpm for 5 min finally separating the upper layer carefully and drying the solution under rotavapour/nitrogen gas, after drying add 250 microliter of acetonitrile and inject the sample to HPLC/UPLC. The method was applied for extraction procedure for Pharmacokinetic samples after giving SLNs and free drugs of Retinoic acid and vitamin D3 formulation to rats as oral/subcutaneous routes and sampling time points (0.5 h, 1 h, 2 h, 4 h, 8 h, 12 h, 24 h, 48 h, 72 h, 96 h, 120 h, 144 h, 168 h).

The conditions of data set [2]: in vivo; cited from earlier work.

Where two headings read alike, the source gives them in different places.

For the compound `CC1=C(/C=C/C(C)=C/C=C/C(C)=C/C(=O)O)C(C)(C)CCC1` [ATRA-S, all-trans retinoic acid], the peak concentration (Cmax) is 151 ng/mL in data set [1] (male, Wistar, 1 Lac IU, plasma ATRA, oral administration, rat, read-out: Cmax); 1390 ng/mL in data set [1] (male, Wistar, sc, 2.5 Lacs IU, plasma ATRA, single dose subcutaneous, rat, read-out: Cmax); 1400 ng/mL in data set [1] (male, Wistar, sc, plasma ATRA, single dose subcutaneous injection, 2.5 Lac I.U, rat, read-out: Cmax); 151 ng/mL in data set [1] (male, Wistar, plasma ATRA, single dose oral, 1 Lac I.U, rat, read-out: Cmax). Besides, the AUC(0-t) came out at 357 ng·h/mL in data set [1] (male, Wistar, rat, po, 1 Lac I.U, plasma ATRA, single dose oral, 1 Lac I.U, rat, read-out: AUC (0-T)); 714 ng·h/mL in data set [1] (male, Wistar, rat, po, 1 Lac I.U, plasma ATRA, single dose oral, 1 Lac I.U, rat, read-out: AUC (T-∞)); 356 ng·h/mL in data set [1] (male, Wistar, rat, po, 1 Lac IU, plasma ATRA, oral administration, rat, read-out: AUC0-t); 713 ng·h/mL in data set [1] (male, Wistar, rat, po, 1 Lac IU, plasma ATRA, oral administration, rat, read-out: AUCt-∞); 2820 ng·h/mL in data set [1] (male, Wistar, rat, sc, 2.5 Lac I.U, plasma ATRA, single dose subcutaneous, 2.5 Lac I.U, rat, read-out: AUC (0-T)); 2950 ng·h/mL in data set [1] (male, Wistar, rat, sc, 2.5 Lac I.U, plasma ATRA, single dose subcutaneous, 2.5 Lac I.U, rat, read-out: AUC (T-∞)). Moreover, the AUC(0-t) in data set [1] (male, Wistar, rat, sc, 2.5 Lacs IU, plasma ATRA, single dose subcutaneous, rat, read-out: AUC0-t) is 2820 ng·h/mL. In addition, in data set [1] (male, Wistar, sc, 2.5 Lacs IU, plasma ATRA, single dose subcutaneous, rat), the AUC(0-inf) was found to be 2950 ng·h/mL. Moreover, the half-life was 57 min in data set [1] (male, Wistar, sc, plasma ATRA, single dose subcutaneous, 2.5 Lac I.U, rat) and 290 min in data set [1] (male, Wistar, plasma ATRA, single dose oral, 1 Lac I.U, rat). Besides, the Tmax was found to be 30 min in data set [1] (male, Wistar, sc, plasma ATRA, single dose subcutaneous, 2.5 Lac I.U, rat, read-out: Tmax) and 54 min in data set [1] (male, Wistar, plasma ATRA, single dose oral, 1 Lac I.U, rat, read-out: Tmax). The Kel came out at 0.17 in data set [1] (plasma ATRA, single dose oral, 1 Lac I.U, rat) and 0.74 in data set [1] (plasma ATRA, single dose subcutaneous, 2.5 Lac I.U, rat). Further, the “plasma ATRA dropped to an undetectable level at, after dosing” value in data set [1] (rat plasma) was 4 h.

On to `C=C1CC[C@H](O)C/C1=C/C=C1\CCC[C@]2(C)[C@@H]([C@H](C)CCCC(C)C)CC[C@@H]12` [Vitamin D3-S, cholecalciferol], for which the Cmax is less than 25 ng/mL in data set [1] (male, Wistar, rat, in vivo, po) and less than 25 ng/mL in data set [1] (male, Wistar, rat, in vivo, sc). Moreover, the Tmax in data set [1] (male, Wistar, rat, in vivo, po) was found to be 0 min; in data set [1] (male, Wistar, rat, in vivo, sc), 0 min. The Kel is 0.0 in data set [1] (plasma vitamin D3, single dose oral, 1 Lac IU, rat) and 0.0 in data set [1] (plasma vitamin D3, single dose subcutaneous, 2.5 Lac I.U, rat). Moreover, the “CL” value in data set [1] (rat, in vivo, po) was 0.0 mL/h/g; in data set [1] (rat, in vivo, sc) it was 0.0 mL/h/g. The T1/2 in data set [1] (rat, in vivo, po) was found to be 0 h; in data set [1] (rat, in vivo, sc), 0 h.

For `C=C1CC[C@H](O)C/C1=C/C=C1\CCC[C@]2(C)[C@@H]([C@H](C)CCCC(C)C)CC[C@@H]12` [vitamin D3, cholecalciferol], in data set [2], the Cmax in plasma entry is recorded as “not more than 75 ng/ml”.

As usually defined, the Cmax is the peak of the concentration-time curve. Broadly, the AUC(0-inf) is total exposure, with the tail of the curve extrapolated. Low values mean less exposure, high ones more exposure. As usually defined, the half-life is how long it takes for the measured level to halve. A word on the Tmax: it is the time from dosing to the highest level.

(Values after patent US9907758B2, “Process for preparing solid lipid sustained release nanoparticles for delivery of vitamins” (Department of Biotechnology (DBT), priority 2012, dated 2018).)
